Patent EP0418835B1, “Novel alkaline pullulanase y having alpha-amylase activity, microorganism producing the same, and process for producing the same” (KAO CORPORATION, priority 1989, dated 1991)

What was measured:
Format in all cases: biochemical, Bacillus sp. KSM-AP1378
alkaline pullulanase Y [1] = test: Substrate specificity (relative activity on various substrates); conditions: substrate concentration 1 x 10⁻² M
Experimental: (§1) 0.1 ml of enzyme solution was added to 0.9 ml of each substrate solution prepared from each buffer solution containing pullulan (final concentration in the reaction system: 0.25% w/v) and the mixture was reacted at 40°C for 30 minutes. After the reaction, reducing sugars were quantitatively determined by means of the 3,5-dinitro-salicylic acid (DNS) procedure. Specifically, 1.0 ml of a DNS reagent was added to 1.0 ml of reaction mixture and the mixture was heated at 100°C for 5 minutes to develop a color. After cooling, the mixture was diluted by adding 4.0 ml of deionized water. This solution was subjected to colorimetric quantitative analysis at a wave length of 535 nm. One unit (1 U) of enzyme activity was defined as the amount of enzyme which released 1 µmol of reducing sugar (as glucose) per minute under the standard assay conditions.
Acts on pullulan, soluble starch, and glycogen. (See Table 1) Table 1

alkaline pullulanase Y [2] = test: Effects of metal ions and chelating agents on pullulanase activity (DNS reducing sugar assay)
Experimental: as §1

alkaline pullulanase Y [3] = test: Effects of metal ions and chelating agents on α-amylase activity (DNS reducing sugar assay)
Experimental: as §1, with “soluble starch” for “pullulan”, “50°C” for “40°C”, “15” for “30”, “a DNS method.” for “the 3,5-dinitro-salicylic acid (DNS) procedure.”

OC[C@H]1O[C@@H](OC[C@H]2OC(O)[C@H](O)[C@@H](O)[C@@H]2O)[C@H](O)[C@@H](O)[C@@H]1O (some centres unmarked) [Gentiobiose]
Relative Activity (%) (alkaline pullulanase Y [1]): 0%

[Cl-].[Cl-].[Zn+2] [ZnCl₂]
Residual activity (%) Pullulanase Activity (alkaline pullulanase Y [2]; metal salt 1 mM): 93%
Residual activity (%) α-amylase Activity (alkaline pullulanase Y [3]; metal salt 1 mM): 57%

HgCl₂
Residual activity (%) Pullulanase Activity (alkaline pullulanase Y [2]; metal salt 1 mM): 36%
Residual activity (%) α-amylase Activity (alkaline pullulanase Y [3]; metal salt 1 mM): 53%

OC[C@H]1O[C@H](O[C@H]2[C@H](O)[C@@H](O)C(O)O[C@@H]2CO)[C@H](O)[C@@H](O)[C@@H]1O (mixture of isomers) [Maltose]
Relative Activity (%) (alkaline pullulanase Y [1]): 0%

O=C(O)CN(CCOCCOCCN(CC(=O)O)CC(=O)O)CC(=O)O [EGTA]
Residual activity (%) Pullulanase Activity (alkaline pullulanase Y [2]; chelating agent 10 mM): 65%
Residual activity (%) α-amylase Activity (alkaline pullulanase Y [3]; chelating agent 10 mM): 18%
Residual activity (%) α-amylase Activity when Ca⁺² ions was again added (alkaline pullulanase Y [3]; chelating agent 10 mM, Ca⁺² ions added again (value in parenthesis)): 91%

OC[C@H]1O[C@H](O[C@H]2[C@H](O)[C@@H](O)[C@@H](O[C@H]3[C@H](O)[C@@H](O)C(O)O[C@@H]3CO)O[C@@H]2CO)[C@H](O)[C@@H](O)[C@@H]1O (some centres unmarked) [Maltotriose]
Relative Activity (%) (alkaline pullulanase Y [1]): 0%

[Cl][Cd][Cl] [CdCl₂]
Residual activity (%) Pullulanase Activity (alkaline pullulanase Y [2]; metal salt 1 mM): 80%
Residual activity (%) α-amylase Activity (alkaline pullulanase Y [3]; metal salt 1 mM): 38%

[Cl][Pb][Cl] [PbCl₂]
Residual activity (%) Pullulanase Activity (alkaline pullulanase Y [2]; metal salt 1 mM): 53%
Residual activity (%) α-amylase Activity (alkaline pullulanase Y [3]; metal salt 1 mM): 53%

O=C(O)CN(CCN(CC(=O)O)CC(=O)O)CC(=O)O [EDTA]
Residual activity (%) Pullulanase Activity (alkaline pullulanase Y [2]; chelating agent 10 mM): 77%

OC[C@H]1O[C@H](OC[C@H]2OC(O)[C@H](O)[C@@H](O)[C@@H]2O)[C@H](O)[C@@H](O)[C@@H]1O (some centres unmarked) [Isomaltose]
Relative Activity (%) (alkaline pullulanase Y [1]): 4%

[Cl][Mn][Cl] [MnCl₂]
Residual activity (%) Pullulanase Activity (alkaline pullulanase Y [2]; metal salt 1 mM): 51%
Residual activity (%) α-amylase Activity (alkaline pullulanase Y [3]; metal salt 1 mM): 28%

OC[C@H]1O[C@H](OC[C@H]2O[C@H](O[C@H]3[C@H](O)[C@@H](O)C(O)O[C@@H]3CO)[C@H](O)[C@@H](O)[C@@H]2O)[C@H](O)[C@@H](O)[C@@H]1O (some centres unmarked) [Panose]
Relative Activity (%) (alkaline pullulanase Y [1]): 0%

OC[C@H]1O[C@H](OC[C@H]2O[C@H](OC[C@H]3OC(O)[C@H](O)[C@@H](O)[C@@H]3O)[C@H](O)[C@@H](O)[C@@H]2O)[C@H](O)[C@@H](O)[C@@H]1O (some centres unmarked) [Isomaltotriose]
Relative Activity (%) (alkaline pullulanase Y [1]): 11%
